Reference: US6114349A, “Substituted quinoline derivatives with antiviral action” (Hoechst Aktiengesellschaft, priority 1996, dated 2000)
Values after ≈ are worked out from the molar mass of the structure shown.

Molecular target: T1, HIV "Reverse Transcriptase" (Human immunodeficiency virus type 1 group M subtype B, UniProt P04585)
T1 construct: purchased HT Biotechnology LTD, Cambridge, UK; host or cells: E. coli
Assay: Inhibition of HIV reverse transcriptase, Scintillation Proximity Assay (SPA)
Type: biochemical
Settings: RT-SPA, 60 min, 37° C.; read-out: Reverse Transcriptase Assay IC-50 (converted)
Description: Investigation of the Substances for Inhibition of HIV "Reverse Transcriptase"
The activity of the reverse transcriptase (RT) was determined using a "Scintillation Proximity Assay" (SPA).
The reagent kit for the RT-SPA was obtained from Amersham/Buchler (Brunswick). The enzyme RT (from HIV cloned in E. coli) came from HT Biotechnology LTD, Cambridge, UK.
The test was carried out according to the method manual of the manufacturer Amersham--with the following modifications:
Bovine serum albumin was added to the assay buffer to a final concentration of 0.5 mg/ml.
The test was carried out in Eppendorf reaction vessels with a […] batch volume.
The RT concentrate of the manufacturer (5000 U/ml) was diluted to an activity of 15 U/ml in tris HCl buffer 20 mM; pH 7.2; 30% glycerol.
The incubation time for the batches was 60 min (37° C.).
After stopping the reaction and "development" with the bead suspension, 130 μl batches were transferred to 4.5 ml of tris HCl buffer, 10 mM; pH 7.4; 0.15 M NaCl and the tritium activity was measured in a β-counter.
For a preliminary test of the inhibitor activity, the substances were dissolved in DMSO (stock solution c=1 mg/ml) and tested in dilution in DMSO 10^-1, 10^-2, 10^-3 etc.
For the determination of IC50 values, the inhibitor stock solutions were further diluted in tris HCl buffer, 50 mM, pH 8 and tested in suitable concentrations.
From the graphic representation of RT activity versus Log Clnh., the concentration associated with a 50% enzyme inhibition was determined.

| Compound | IC50 [µM] |
| --- | --- |
| CCc1c(C(=O)OC(C)C)c2cc(Cl)ccc2[nH]c1=O [Compound 19, isopropyl 6-chloro-3-ethylquinolin-2(1H)-one-4-carboxylate] | 0.094 |
| CC(C)OC(=O)c1c(C(C)C)c(=O)[nH]c2ccccc12 [Compound 34] | 1.52 |
| CC(C)OC(=O)c1c(C(C)C)c(=S)[nH]c2ccccc12 [Compound 35] | 0.529 |
| Cc1c(C(=O)OCC2CC2)c2cc(Cl)ccc2[nH]c1=S [Compound 43] | 0.026 |
| CC(C)OC(=O)c1c(-c2ccccc2)c(=S)[nH]c2ccc(Cl)cc12 [Compound 6] | 0.022 |
| CC(C)Cc1c(C(=O)OC(C)C)c2ccccc2[nH]c1=O [Compound 16] | 0.372 |
| CCCOC(=O)c1c(C)c(=S)[nH]c2ccc(Cl)cc12 [Compound 45] | 0.034 |
| CCc1c(C(=O)OC(C)C)c2cc(Cl)ccc2[nH]c1=S [Compound 20, isopropyl 6-chloro-3-ethylquinoline-2(1H)-thione-4-carboxylate] | 0.008 |
| Cc1c(C(=O)OC(C)C)c2cc(Cl)ccc2[nH]c1=O [Compound 40] | 0.608 |
| CC(C)OC(=O)c1c(-c2ccccc2Cl)c(=S)[nH]c2ccccc12 [Compound 61] | 0.026 |
| CCc1c(C(=O)OC2CCCC2)c2ccccc2[nH]c1=S [Compound 30] | 0.147 |
| CC(C)OC(=O)c1c(-c2ccccc2)c(=S)[nH]c2ccc(F)cc12 [Compound 15] | 0.021 |
| CCc1c(C(=O)OC2CCCCC2)c2cc(Cl)ccc2[nH]c1=S [Compound 70] | 0.008 |
| C=CCOC(=O)c1c(CC)c(=S)[nH]c2ccc(Cl)cc12 [Compound 71] | 0.001 |
| CCc1c(C(=O)OC(C)C)c2ccccc2[nH]c1=S [Compound 5] | 0.035 |
| CCC(CC)OC(=O)c1c(-c2ccccc2)c(=S)[nH]c2ccc(Cl)cc12 [Compound 18] | 0.029 |
| CCOC(=O)c1c(CC)c(=S)[nH]c2ccc(Cl)cc12 [Compound 67] | 0.001 |

System: HIV
Assay: Testing of preparations against HIV in cell culture (giant cell formation in HIV-infected lymphocytes)
Type: cell-based
Settings: Human immunodeficiency virus 1, 72 h, lowest concentration at which no giant cells occurred, 3 days, 37° C.
Description: Testing of Preparations Against HIV Cell Culture
Complete medium additionally contains 20% fetal calf serum and 40 IU/ml of recombinant interleukin 2.
Lymphocytes isolated from fresh donor blood by means of Ficoll^R gradient centrifugation are cultured at 37° C. under 5% CO2 for 36 h in complete medium with addition of […] of phytohemagglutinin (Wellcome). After addition of 10% DMSO, the cells are frozen at a cell density of 5×10^6 and stored in liquid nitrogen. For the experiment, the cells are thawed, washed in RPMI medium and cultured in complete medium for 3-4 days.
The test preparations were dissolved in DMSO in a concentration of 16.7 mg/ml and diluted to 1 mg/ml in complete medium. 0.4 ml of medium was initially introduced into 24-well multiwell dishes. After addition of 0.1 ml of the dissolved preparation in the top row of the dish, a geometrical dilution series was produced by transfer of 0.1 ml in each case. Preparation-free controls always contained 0.4 ml of complete medium containing 0.5% DMSO. Lymphocyte cultures having a cell count of 5×10^5 cells/ml were infected by addition of 1/50 volumes of supernatant from HIV-infected lymphocyte cultures. The titer of these culture supernatants was determined by endpoint dilution with 1-5×10^6 infectious units/ml. After incubation at 37° C. for 30 min, the infected lymphocytes were removed by centrifugation and taken up again in the same volume of medium. 0.6 ml of this cell suspension in each case was added to all hollows of the test plate. The batches were incubated at 37° C. for 3 days.
The infected cell cultures were investigated under the microscope for the presence of giant cells, which indicate active virus replication in the culture. The lowest preparation concentration at which no giant cells occurred was determined as the inhibitory concentration against HIV. For the control, the supematants from the culture plates were determined for the presence of HIV antigen using an HIV antigen test according to the instructions of the manufacturer (Organon).

| Compound | MIC [µg/mL] |
| --- | --- |
| CCc1c(C(=O)OC(C)C)c2cc(Cl)ccc2[nH]c1=O [Compound 19, isopropyl 6-chloro-3-ethylquinolin-2(1H)-one-4-carboxylate] | ~0.2 (≈ 0.681 µM) |
| CC(C)OC(=O)c1c(C(C)C)c(=O)[nH]c2ccccc12 [Compound 34] | > 0.2 |
| CC(C)OC(=O)c1c(C(C)C)c(=S)[nH]c2ccccc12 [Compound 35] | > 0.04 |
| Cc1c(C(=O)OC(C)C)c2cc(Cl)ccc2[nH]c1=S [Compound 41] | > 0.04 |
| COC(=O)c1c(C)c(=S)[nH]c2ccc(Cl)cc12 [Compound 39] | > 0.2 |
| CC(C)Cc1c(C(=O)OC(C)C)c2ccccc2[nH]c1=O [Compound 16] | > 0.04 |
| CCCOC(=O)c1c(C)c(=S)[nH]c2ccc(Cl)cc12 [Compound 45] | < 0.2 |
| CCc1c(C(=O)OC(C)C)c2cc(Cl)ccc2[nH]c1=S [Compound 20, isopropyl 6-chloro-3-ethylquinoline-2(1H)-thione-4-carboxylate] | > 0.008 |
| Cc1c(C(=O)OC(C)C)c2cc(Cl)ccc2[nH]c1=O [Compound 40] | > 0.04 |
| CC(C)OC(=O)c1c(-c2ccccc2Cl)c(=S)[nH]c2ccccc12 [Compound 61] | ~0.08 (≈ 0.224 µM) |
| CCc1c(C(=O)OC2CCCC2)c2ccccc2[nH]c1=S [Compound 30] | ~0.2 (≈ 0.664 µM) |
| Cc1c(C(=O)OCC2CC2)c2cc(Cl)ccc2[nH]c1=O [Compound 42] | > 0.2 |
| CC(C)OC(=O)c1c(-c2ccccc2)c(=S)[nH]c2ccc(F)cc12 [Compound 15] | > 0.04 |
| CCc1c(C(=O)OC2CCCCC2)c2cc(Cl)ccc2[nH]c1=S [Compound 70] | ~0.4 (≈ 1.14 µM) |
| C=CCOC(=O)c1c(CC)c(=S)[nH]c2ccc(Cl)cc12 [Compound 71] | ~0.4 (≈ 1.3 µM) |
| CCc1c(C(=O)OC(C)C)c2ccccc2[nH]c1=S [Compound 5] | 0.2 (≈ 0.726 µM) |
| CCC(CC)OC(=O)c1c(-c2ccccc2)c(=S)[nH]c2ccc(Cl)cc12 [Compound 18] | > 0.2 |

Same assay, conditions: Human immunodeficiency virus 1, Lymphocyte, 72 h, 3 days, 37° C.

| Compound | EC50 [µg/mL] |
| --- | --- |
| CCc1c(C(=O)OC(C)C)c2cc(Cl)ccc2[nH]c1=O [Compound 19, isopropyl 6-chloro-3-ethylquinolin-2(1H)-one-4-carboxylate] | ~0.02 (≈ 0.0681 µM) |
| CC(C)OC(=O)c1c(C(C)C)c(=O)[nH]c2ccccc12 [Compound 34] | ~0.1 (≈ 0.366 µM) |
| CC(C)OC(=O)c1c(C(C)C)c(=S)[nH]c2ccccc12 [Compound 35] | > 0.008 |
| Cc1c(C(=O)OC(C)C)c2cc(Cl)ccc2[nH]c1=S [Compound 41] | < 0.001 |
| COC(=O)c1c(C)c(=S)[nH]c2ccc(Cl)cc12 [Compound 39] | 0.03 (≈ 0.112 µM) |
| CC(C)Cc1c(C(=O)OC(C)C)c2ccccc2[nH]c1=O [Compound 16] | 0.05 (≈ 0.174 µM) |
| CCCOC(=O)c1c(C)c(=S)[nH]c2ccc(Cl)cc12 [Compound 45] | ~0.04 (≈ 0.135 µM) |
| CCc1c(C(=O)OC(C)C)c2cc(Cl)ccc2[nH]c1=S [Compound 20, isopropyl 6-chloro-3-ethylquinoline-2(1H)-thione-4-carboxylate] | ~0.002 (≈ 0.00646 µM) |
| Cc1c(C(=O)OC(C)C)c2cc(Cl)ccc2[nH]c1=O [Compound 40] | 0.015 (≈ 0.0536 µM) |
| CCc1c(C(=O)OC2CCCC2)c2ccccc2[nH]c1=S [Compound 30] | ~0.04 (≈ 0.133 µM) |
| Cc1c(C(=O)OCC2CC2)c2cc(Cl)ccc2[nH]c1=O [Compound 42] | ~0.1 (≈ 0.343 µM) |
| CC(C)OC(=O)c1c(-c2ccccc2)c(=S)[nH]c2ccc(F)cc12 [Compound 15] | ~0.02 (≈ 0.0586 µM) |
| CCc1c(C(=O)OC2CCCCC2)c2cc(Cl)ccc2[nH]c1=S [Compound 70] | < 0.08 |
| C=CCOC(=O)c1c(CC)c(=S)[nH]c2ccc(Cl)cc12 [Compound 71] | < 0.08 |
| CCc1c(C(=O)OC(C)C)c2ccccc2[nH]c1=S [Compound 5] | 0.005 (≈ 0.0182 µM) |
| CCC(CC)OC(=O)c1c(-c2ccccc2)c(=S)[nH]c2ccc(Cl)cc12 [Compound 18] | ~0.08 (≈ 0.207 µM) |

System: not given
Assay: not given
Settings: Hirsch, M. S. J. Infect. Dis. 157 (1988), 427-431; cited from earlier work

| Compound | therapeutic breadth / toxicity |
| --- | --- |
| Nc1ccn([C@H]2CC[C@@H](CO)O2)c(=O)n1 [DDC] | very narrow therapeutic breadth or by very severe toxicity which occurs even in the therapeutic range |
| O=c1[nH]cnc2c1ncn2[C@H]1CC[C@@H](CO)O1 [DDI] | very narrow therapeutic breadth or by very severe toxicity which occurs even in the therapeutic range |
